According to patent publication US11883509B2, “Pharmaceutical composition for inhalation administration for labeling pulmonary tumorous lesion, containing fluorescent contrast agent as active ingredient” (KOREA UNIVERSITY RESEARCH AND BUSINESS FOUNDATION, priority 2018, dated 2024):
Values joined by “and” are separate entries in the source; they are usually repeats but may differ in a detail not shown here. Equal entries are not always repeated.

Experiments:
Assay type in all cases: in vivo
VX2 carcinoma [1] = assay: Cancer detection rate (TMDE) in lung tumor-induced rabbit model depending on concentration of administered ICG
Procedure: (§1) In Example 1, it was confirmed that the ICG administered via the airway through respiration stained the lung tissue quickly and emitted strong fluorescence with little effect on other organs. Then, it was investigated whether the airway administration of ICG can be used to distinguish cancer tissue from normal tissue by staining only the normal tissue in a lung tumor animal model. Specifically, a lung tumor-induced rabbit model was prepared as shown in FIG. 2 by transplanting VX2 carcinoma into the lungs of a rabbit. The rabbit was made to inhale ICG (0.75 mg/mL) for 4 minutes by connecting a nebulizer to a ventilator. 1 hour later, the chest of the rabbit was cut open and the fluorescence images of the lung were acquired using a NIR imaging system. After conducting surgery for pulmonary nodules, the excised lung tissue was prepared into 10 μm-thick cryosections and optical images were acquired using a NIR microscope. Then, the lung tissue was stained with H&E, and the boundary of cancer tissue was observed histologically.
It was investigated whether the desired effect can be achieved with a less amount of ICG administered by airway administration as compared to intravenous administration of ICG. Specifically, after administering ICG at different concentrations (0.1 mg/kg, 0.25 mg/kg, 0.5 mg/kg, 1 mg/kg) in the same manner as in Example 2 to the lung tumor-induced rabbit model of Example 2, the fluorescence images of the lung were acquired and TMDE (tumor margin detection efficiency) depending on the ICG concentration was compared.

[2] = Distribution of ICG administered to normal mice via airway and fluorescence duration
Procedure: It was investigated, when Indocyanine green (ICG) is administered via the airway of a subject through respiration, whether the lungs are stained properly, organs other than the lungs are also affected, how long the staining lasts, etc. More specifically, 0.25 mg/mL ICG were administered to normal mice for 10 minutes through respiration using the SciReq nebulizer, as shown in FIG. 1a. The, the ICG (2.5 mg/kg)-administered mice were sacrificed 10 minutes, 1 hour, 3 hours, 6 hours and 24 hours later. After extracting the brain, lung, liver, kidney and spleen, fluorescence images were acquired and fluorescence signal intensity was measured using a fluorescence imaging system.

VX2 carcinoma [3] = assay: Cancer detection rate (TMDE) in lung tumor-induced rabbit model depending on administration route of ICG; conditions: 0.25 mg/kg ICG through respiration vs 5 mg/kg intravenous, TMDE at 1, 3, 6, 24 hours
Procedure: as §1, with “Then, the lung tissue was stained with H&E, and the boundary of cancer tissue was observed histologically.” left out
Specifically, after extracting the lungs from a lung tumor-induced rabbit model to which 0.25 mg/kg ICG was administered through respiration in the same manner as in Example 2 and a lung tumor-induced rabbit model to which 5 mg/kg ICG was administered intravenously, fluorescence images were acquired and TMDE was quantitated 1 hour later, 3 hours later, 6 hours later and 24 hours later using a NIR imaging system.

VX2 carcinoma [4] = assay: Identification of boundary of cancer tissue in lung tumor-induced rabbit model through airway administration of ICG; conditions: ICG 0.75 mg/mL inhaled 4 minutes
Procedure: as §1

lung tumor = assay: Visualization of lesion in human lungs through administration of ICG via bronchus
Procedure: As confirmed in Examples 2-4, remarkably high cancer detection rate could be achieved through airway administration of ICG for lung tumor even with a less amount of ICG. […] Specifically, the lobar bronchi of six lung tumor patients who received surgery for pulmonary nodules in Korea University Guro Hospital were connected with tubes and 0.75 mg/mL ICG was administered for 4 minutes using a nebulizer. Then, fluorescence images were acquired using a NIR imaging system.

lung cancer cells = assay: Distribution of inhaled ICG in mouse lung cancer model with GFP-labeled lung cancer cells; conditions: fluorescence imaging
Description: In order to investigate the boundary of cancer cells and ICG distribution more accurately, a mouse lung cancer model was established by labeling lung cancer cells with GFP and the distribution of ICG administered through respiration was investigated by fluorescence imaging.

[5] = airway administration by nebulizer, ICG 2.5 mg/kg
[6] = airway administration, extracted organs, fluorescence imaging
[7] = six lung tumor patients, 0.75 mg/mL ICG via lobar bronchus 4 minutes

time after administration at which fluorescence is emitted in the lungs [2, 5]: ≤ 10 min
time after administration at which fluorescence signals could still be detected [2, 5]: ≥ 24 h
time of peak fluorescence signals after administration [2, 5]: 1 h
distribution of ICG in the kidney and spleen [2, 6]: almost nonexistent
Structure (SMILES): CC1(C)C(/C=C/C=C/C=C/C=C2\N(CCCCS(=O)(=O)O)c3ccc4ccccc4c3C2(C)C)=[N+](CCCCS(=O)(=O)[O-])c2ccc3ccccc3c21 [ICG, Indocyanine green]
ICG concentration needed for accurate detection of the boundary of lung tumor (VX2 carcinoma [1]; airway administration): ≥ 0.25 mg/kg
detection of boundary of cancer tissue (VX2 carcinoma [1]; airway administration of ICG at 0.1, 0.25, 0.5 and 1 mg/kg): could be detected effectively
lung tumor detection rate (TMDE) versus ICG concentration (VX2 carcinoma [1]; airway administration, 0.1-1 mg/kg): increased depending on the concentration of ICG
distribution of ICG in the lung [2, 6]: present at high concentrations particularly in the lung
cancer detection rate (TMDE) of respiration administration relative to intravenous administration (VX2 carcinoma [3]): ≥ 2.5 times
boundary of cancer tissue identified by ICG versus H&E histology (VX2 carcinoma [4]): consistent with the histologically observed boundary of cancer
diameter of the cancer tissue negatively contrasted by ICG (VX2 carcinoma [4]; imaged 1 hour later): 2 mm
distribution of inhaled ICG in cancer tissue versus normal tissue (VX2 carcinoma [4]; imaged 1 hour later): not distributed in the cancer tissue but stains the normal tissue only
TMDE (lung tumor; six lung tumor patients (Case 1-6, one value per patient), 0.75 mg/mL ICG via lobar bronchus 4 minutes by nebulizer): 2.8 (2×) and 2.7 and 3.3 and 2.6 and 3.4
boundary between cancer tissue and normal tissue versus pathology (lung tumor; [7]): consistent with the pathological outcome for each patient
distribution of inhaled ICG in human lungs (lung tumor; [7]): distributed only in the normal tissue of the lungs
distribution of ICG administered through respiration (lung cancer cells): distributed through the lungs except for the lung cancer cells
